# Values of other authors as cited in article PMC11187573, “Identification of SARS-CoV-2 Mpro inhibitors through deep reinforcement learning for de novo drug design and computational chemistry approaches” (RSC Medicinal Chemistry, 2024).
# System: Mpro
# Details: ML dataset, Origin COVID_Moonshot; ref COVID Moonshot; cited from earlier work
row,Compound,IC50 [µM]
1,O=C(Nc1cncc2ccccc12)C1COc2ccc(Cl)cc21 (racemic),1.86
2,O=C(NCCc1cccc(F)c1)C(c1cccnc1)N(C(=O)c1c[nH]cn1)c1ccc(Cn2cccn2)cc1 (stereo not shown) [BRU-THA-92256091-86],35.5
3,CS(=O)(=O)c1ccc(N(C(=O)c2cocn2)C(C(=O)NCCc2cccc(F)c2)c2cccnc2)cc1 (stereo not shown) [ALP-POS-ced8ea4d-9],75.9
4,CNC(=O)Nc1ccc(N(Cc2ccsc2)C(=O)Cn2nnc3ccccc32)cc1 [ROB-IMP-e811baff-1],8.37
5,O=C(Cc1cccc(Cl)c1)Nc1cnccc1-c1ccccc1,33
6,"O=C(Nc1cnccc1CO)C1COc2ccc(Cl)cc21 (stereo not shown) [JAG-UCB-a3ef7265-3, Mpro-x10338]",30.4
7,"O=C1CC(Oc2cc(Cl)cc(N(CCC3CCCCC3)C(=O)Nc3cncc4ccccc34)c2)N1 (stereo not shown) [MAT-POS-53907a1c-3, O=C(Nc1cncc2ccccc12)N(CCC1CCCCC1)c1cc(Cl)cc(OC(C2)NC2=O)c1, reference compound]",0.84
8,O=C(Nc1ccc(Cl)cc1)[C@@H](c1ccccc1)N1Cc2ccccc2C1=O [LON-WEI-b2874fec-16],82.3
9,COc1cccc(CC(=O)Nc2cncc3ccccc23)c1 [RAL-THA-2d450e86-11],30.5
10,O=C(NCCc1cccc(F)c1)C(c1cccnc1)N(C(=O)c1cocn1)c1ccc(C(F)(F)F)nc1 (stereo not shown) [ALP-POS-ced8ea4d-37],36.4
11,N#Cc1cc(Cl)cc(NC(=O)Nc2cccnc2)c1 [WAR-XCH-eb7b662f-2],99
12,Nc1cncc2c1CCCN2C(=O)Cc1cccc(Cl)c1,43.4
13,O=C(Cc1cccc(Cl)c1F)Nc1cncc2ccccc12 [RAL-THA-2d450e86-19],23.6
14,CCCCc1nc(-c2nccn2Cc2ccoc2)c[nH]1 [MAT-POS-ea426761-53],14.3
15,CC(C)(C)c1ccc(N(C(=O)c2ccco2)C(C(=O)Nc2ccccc2)c2cccnc2)cc1 (stereo not shown) [ALP-POS-02c6a514-56],11.2
16,NS(=O)(=O)c1[nH]ncc1C(=O)NC[C@@]1(C(=O)Nc2cncc3ccccc23)CCOc2ccc(Cl)cc21 [EDJ-MED-4c7486ba-8],1.99
17,COc1ccc(N(Cc2cccc(Cl)c2)C(=O)Cn2nnc3ccccc32)cc1 [CHO-MSK-00c5269a-2],3.4
18,CS(=O)(=O)c1ccc(N2CCNCC2)cc1,91.6
19,Cc1ccncc1NC(=O)Cc1cc(Cl)cc(-c2ccc(C3CC3(F)F)cc2)c1 (stereo not shown) [MAT-POS-f42f3716-1],5.64
20,CN(C)C(=O)CN1CCC(C(=O)Nc2cncc3ccccc23)c2cc(Cl)ccc21 (stereo not shown) [RAL-THA-8416115c-9],2.54
21,O=C(C[C@]1(C(=O)Nc2cncc3ccccc23)CCOc2ccc(Cl)cc21)N1CCN(C2CCOC2)CC1 (stereo partly shown) [ALP-POS-5bb456a5-8],1.99
22,O=C(Nc1cncc2ccccc12)C(CO)c1ccc(Cl)c(Cl)c1 (stereo not shown) [MAT-POS-fce787c2-11],19.3
23,COc1ccc(NC(=O)C(c2cccnc2)N(C(=O)c2cocn2)c2ccc(C(C)(C)C)cc2)cn1 (stereo not shown) [ALP-POS-88a7a97e-41],5.37
24,O=C(Cc1cccc(Cl)c1)Nc1[nH]nc2cccc(F)c12 [EDJ-MED-c8e7a002-13],90.6
25,O=C(NCCc1cccc(F)c1)C(c1cccnc1)N(C(=O)c1cocn1)c1cnc(C2CCC2)nc1 (stereo not shown) [ALP-POS-ced8ea4d-63],69.1

row,Compound,IC50 [µM]
1,CC(C)(C)c1ccc(N(C(=O)c2ccco2)C(C(=O)NCCN2CCOCC2)c2cccnc2)cc1 (stereo not shown) [ALP-POS-02c6a514-55],2.19
2,O=C(Nc1c[nH]c(=O)c2ccccc12)C1CCOc2ccc(Cl)cc21 (stereo not shown) [JOH-UNI-f51e3bbc-1],91.6
3,Cc1ccncc1NC(=O)Cc1cc(Cl)cc(NC2CCC(F)(F)C2O)c1 (stereo not shown) [MAT-POS-044491d2-2],24.4
4,CC(C)(C)c1ccc(N(C(=O)c2ncc[nH]2)C(C(=O)NCCc2cccc(F)c2)c2cccnc2)cc1 (stereo not shown) [ALP-POS-02c6a514-46],5.29
5,O=C(Cc1cccc(Cl)c1)Nc1nnn[nH]1 [JAN-GHE-5a013bed-11],45.3
6,CCC(=O)Nc1ccc(N(Cc2cscn2)C(=O)Cn2nnc3ccccc32)cc1 [ALP-POS-87c86d55-2],35.5
7,CN(C(=O)Cn1nnc2ccccc21)c1ccc(Oc2ccc(C(F)(F)F)cn2)cc1 [AAR-POS-8a4e0f60-7],37.8
8,O=C(NCCc1cccc(F)c1)C(c1cccnc1)N(C(=O)c1cocn1)c1ccccc1 (stereo not shown) [ALP-POS-ced8ea4d-28],89.2
9,O=C(Cc1cc(Cl)cc(Oc2cccc(=O)[nH]2)c1)Nc1cncc2ccccc12 [MAT-POS-9ff17035-2],1.98
10,CS(=O)(=O)Cc1ccc(N(C(=O)c2c[nH]cn2)C(C(=O)NCCc2cccc(F)c2)c2cccnc2)cc1 (stereo not shown) [BRU-THA-92256091-20],41.1
11,Cc1ccncc1NC(=O)C1CCOc2ccc(Cl)cc21 (stereo not shown),16
12,CN(C)c1ccc(N(Cc2cscn2)C(=O)Cn2nnc3ccccc32)cc1 [ALP-POS-87c86d55-1],9.57
13,O=C(NCCc1cccc(F)c1)C(c1cccnc1)N(C(=O)c1cocn1)c1ccc2scnc2c1 (stereo not shown) [ALP-POS-ced8ea4d-36],84
14,Cc1ccncc1CC(=O)Nc1cccc(Cl)c1,28.1
15,Cc1ccncc1NC(=O)N(Cc1ccccc1)c1cccc(Cl)c1 [EDG-MED-0da5ad92-20],22.9
16,CC(C)(C)c1ccc(N(C(=O)c2cc(=O)[nH][nH]2)C(C(=O)NCCc2cccc(F)c2)c2cccnc2)cc1 (stereo not shown) [ALP-POS-305f6ec3-59],39.7
17,Cn1ncc(C(=O)N(c2ccc(C(C)(C)C)cc2)C(C(=O)NCCc2cccc(F)c2)c2cccnc2)n1 (stereo not shown) [ALP-POS-305f6ec3-46],17.6
18,CN(C)c1ccc(N(Cc2ccsc2)C(=O)Cn2nnc3ccccc32)cc1 [ALP-POS-d2866bdf-1],3.58
19,CC(C)(C)c1ccc(N(C(=O)c2ccco2)C(C(=O)NCc2ccccc2)c2cccnc2)cc1 (stereo not shown) [ALP-POS-02c6a514-57],4.36
20,CC(C)(C)c1ccc(N(C(=O)c2cocn2)C(C(=O)NCCN2CCOCC2)c2cccnc2)cc1 (stereo not shown) [ALP-POS-88a7a97e-47],82.5
21,C[C@H]1C[C@@H](C(=O)Nc2cncc3ccccc23)c2cc(Cl)ccc2O1 [EDJ-MED-e4b030d8-3],32.7
22,O=C(Cc1cccc(Cl)c1)Nn1cnc2ccccc21,6.28
23,O=C(Nc1cncc2ccccc12)C1CCOc2c(O)cc(Cl)cc21 (stereo not shown) [ALP-POS-ce760d3f-1],0.579
24,Cc1ccncc1C(C(=O)NCCc1cccc(F)c1)N(C(=O)c1cocn1)c1ccc(C(C)(C)C)cc1 (stereo not shown) [ALP-POS-d0876c20-1],0.653
25,COC(=O)C1(NC(=O)C(c2cccnc2)N(C(=O)c2cocn2)c2ccc(C(C)(C)C)cc2)CCCC1 (stereo not shown) [ALP-POS-88a7a97e-36],5.26

row,Compound,IC50 [µM]
1,O=C(Nc1cccnc1)N(CCC1CCCCC1)c1cccc(Cl)c1,3.18
2,O=C(Cc1cncc2ccccc12)N1CCOc2ccc(Cl)cc21 [JOH-UNI-ea1df7a8-1],4.85
3,O=C(Nc1cncc2ccccc12)C1(CO)CCOc2ccc(Cl)cc21 (stereo not shown) [MAT-POS-9db1e783-2],1.09
4,COc1ccc(N(C(=O)c2c[nH]cn2)C(C(=O)NCCc2cccc(F)c2)c2cccnc2)cc1 (stereo not shown) [BRU-THA-92256091-19],93.7
5,O=C(c1cc(=O)[nH]c2ccccc12)N1CCN(c2ccccc2)CC1 [MAT-POS-916a2c5a-4],19
6,COc1cc(Cl)cc(CC(=O)Nc2cnccc2C)c1,40.2
7,Cc1ccncc1NC(=O)Cc1cc(Cl)cc(-c2ccc(C3(C)CCO3)cc2)c1 (stereo not shown) [MAT-POS-f42f3716-5],12.1
8,COCC1(C(=O)Nc2cncc3ccccc23)CCOc2cc(Cl)c(Cl)cc21 (stereo not shown) [EDJ-MED-37aac4bd-2],4.04
9,O=C(Nc1n[nH]c2ccncc12)C1CCOc2ccc(Cl)cc21 (stereo not shown) [JAG-UCB-52b62a6f-16],70.3
10,COC(=O)C1CC(NC(=O)C(c2cccnc2)N(C(=O)c2cocn2)c2ccc(C(C)(C)C)cc2)C1 (stereo not shown) [ALP-POS-88a7a97e-15],3.99
11,O=C(Cc1cc(Cl)cc(-c2nnn[nH]2)c1)Nc1cncc2ccccc12 [MAT-POS-281d2ee9-3],21.4
12,Cc1ccncc1NC(=O)Cc1cc(C#N)cc(OC2CC(=O)N2)c1 (stereo not shown) [TRY-UNI-2eddb1ff-6],10.1
13,Cc1ccncc1NC(=O)Cc1cc(Cl)cc(-c2ccc(C)c(F)c2F)c1,44.1
14,COc1c(Cl)cccc1OCCNC(=O)c1cc(=O)[nH]c2ccccc12 [ALP-POS-3fc1724e-1],11.5
15,CCCCOc1ccc(Cl)cc1CC(=O)Nc1cnccc1C,20.2
16,O=C(Cc1cc(Cl)cc(Cc2ccn[nH]2)c1)Nc1cncc2ccccc12 [PET-UNK-372a2f82-1],7.22
17,Cc1ccncc1NC(=O)CN1CCC(C)CC1,49.2
18,CC(C)(C)c1ccc(N(C(=O)c2cocn2)C(C(=O)NCCc2cccc(F)c2)c2cnccn2)cc1 (stereo not shown) [ALP-POS-d0876c20-21],1.21
19,O=C(Nc1cncc2ccccc12)C1COc2c(Cl)cccc21 (stereo not shown) [FRA-DIA-c7e803f4-1],5.06
20,CS(=O)(=O)Cc1ccc(N(C(=O)c2cocn2)C(C(=O)NCCc2cccc(F)c2)c2cccnc2)cc1 (stereo not shown) [ALP-POS-ced8ea4d-11],27.7
21,Cc1ccncc1NC(=O)Cc1cc(Cl)cc(CNS(C)(=O)=O)c1 [RAL-THA-6b94ceba-12],24.4
22,Cc1c(Cl)ccc2c1[C@H](C(=O)Nc1cncc3ccccc13)CCO2 [EDJ-MED-e4b030d8-8],3.67
23,Cc1c(N)cncc1NC(=O)Cc1cccc(Cl)c1,6.21

# Same assay, conditions: ML dataset, Origin ChEMBL; ref ChEMBL; cited from earlier work
row,Compound,IC50 [µM]
1,"O=C(Oc1cncc(Br)c1)c1ccco1 [CHEMBL222234, O=C(c1ccco1)Oc1cc(Br)cnc1, reference compound]",0.05
2,"C/N=c1/nc(-c2ccccc2)n(-c2ccccc2)s1 [CHEMBL1188627, C/N=C(/N=C1c2ccccc2)\SN1c1ccccc1, reference compound]",0.98
3,"CC[C@H](CO)Nc1nc(NCc2ccc(-c3ccccn3)cc2)c2ncn(C(C)C)c2n1 [CHEMBL518800, CC[C@H](CO)Nc1nc(NCc(cc2)ccc2-c2ncccc2)c2ncn(C(C)C)c2n1, reference compound]",0.84
4,"Cc1ccc(C)c(-n2sc3cc(F)ccc3c2=O)c1 [CHEMBL1725120, Cc1cc(N2Sc(cc(cc3)F)c3C2=O)c(C)cc1, reference compound]",0.02
5,"O=C(Oc1cncc(Cl)c1)c1ccco1 [CHEMBL222840, O=C(c1ccco1)Oc1cc(Cl)cnc1, reference compound]",0.06
6,"O=C(Oc1cncc(Cl)c1)c1cscn1 [CHEMBL222628, O=C(c1cscn1)Oc1cc(Cl)cnc1, reference compound]",0.27
